Source: article PMC6374638, “Evolutionary Relationships Between the Laccase Genes of Polyporales: Orthology-Based Classification of Laccase Isozymes and Functional Insight From Trametes hirsuta” (Frontiers in Microbiology, 2019)
Like-named read-outs stand apart in the source and are kept apart here. One block for each molecule: values may come before it.

Experiments:
LacA = molecular target: T1, LacA (Trametes hirsuta, UniProt A0A0A7M685); assay: spectrophotometric oxidation assay, […] nm, non-linear fit; format: biochemical; settings: 0.1 M citrate-phosphate pH 4.5, 24°C; cited from earlier work
T1 construct: native major secreted laccase, purified previously (Savinova et al., 2017)
T1 sequence (A0A0A7M685 22-520): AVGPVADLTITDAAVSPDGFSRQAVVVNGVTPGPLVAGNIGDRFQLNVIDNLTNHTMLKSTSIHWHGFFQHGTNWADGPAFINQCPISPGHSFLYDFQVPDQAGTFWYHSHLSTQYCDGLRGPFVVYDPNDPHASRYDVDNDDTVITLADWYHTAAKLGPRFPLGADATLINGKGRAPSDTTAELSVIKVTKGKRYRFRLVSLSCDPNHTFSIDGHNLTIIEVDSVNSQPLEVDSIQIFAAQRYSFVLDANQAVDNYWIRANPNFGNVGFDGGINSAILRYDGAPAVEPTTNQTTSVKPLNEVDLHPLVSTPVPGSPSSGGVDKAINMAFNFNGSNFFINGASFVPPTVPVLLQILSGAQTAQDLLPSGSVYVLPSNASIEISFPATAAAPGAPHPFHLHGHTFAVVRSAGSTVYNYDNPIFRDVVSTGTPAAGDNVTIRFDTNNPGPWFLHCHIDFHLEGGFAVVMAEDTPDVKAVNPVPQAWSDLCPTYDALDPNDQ

rLacC [1] = test system: T2, rLacC; assay: as above; format: biochemical, Trametes hirsuta; settings: 0.1 M citrate-phosphate pH 4.5, 24°C
T2 construct: gene lacC; recombinant secreted laccase, obtained previously (Savinova et al., 2017)

rLacC [2] = test system: T2, rLacC; assay: as above; format: biochemical, Trametes hirsuta; settings: 0.1 M citrate-phosphate pH 4.5, 24°C; remark: listed apart in the source
rLacC [3] = test system: T3, rLacC; settings: read-out: KM, μM / rLacC; 0.1 M citrate-phosphate pH 4.5, 24°C
T3 construct: gene lacC

rLacC [4] = test system: T2, rLacC; assay: spectrophotometric oxidation assay, […] nm, non-linear fit; format: biochemical, Trametes hirsuta; settings: 0.1 M citrate-phosphate pH 4.5, 24°C; remark: listed apart in the source
rLacC [5] = test system: T2, rLacC; assay: as above; format: biochemical, Trametes hirsuta; settings: 0.1 M citrate-phosphate pH 4.5, 24°C; remark: listed apart in the source

- Km (rLacC [1]): 71 ± 14 µM
SMILES: COc1cc(/C=C/C(=O)O)cc(OC)c1O [Synapic acid]
- Km (LacA): 17 ± 2 µM

- Km (rLacC [5]): 15700 ± 337 µM
SMILES: COc1ccccc1O [Guaiacol]

Second part, the molecule before the results:

SMILES: COc1cccc(OC)c1O [2,6-DMP, 2,6-dimethoxyphenol]
- Km (rLacC [2]): 589 ± 75 µM

SMILES: COc1cc(/C=C/C(=O)O)ccc1O [Ferulic acid]
- Km (rLacC [3]): 173 ± 38 µM

SMILES: Oc1ccccc1O [Catechol]
- Km (rLacC [4]): 16300 ± 1720 µM
